Reference: US6458748B1, “Di- or tri-fluoromethanesulfonyl anilide derivatives, process for the preparation of them and herbicides containing them as the active ingredient” (Ihara Chemical Industry Co., Ltd., priority 1998, dated 2002)

Tests used:
[1] = test system: Echinochloa oryzicola vasing.; assay: Test 1 paddy pot herbicidal effect, water surface application; format: in vivo; conditions: applied day after sowing, evaluated 28 days later
Text: (§1) Standard of herbicidal effect (level of suppression of development and growth) […] Herbicidal effect of 90% or more, injury to paddy rice […] Herbicidal effect of 70% or more to less than 90%, injury to paddy rice […] 2: […]

[2] = test system: Monochoria vaginalis (Burm. f.) Presl var. plantaginea (Roxb.) Solms-Laub.; assay: as above; format: in vivo; conditions: applied day after sowing, evaluated 28 days later
Text: as §1

[3] = test system: Monochoria vaginalis (Burm. f.) Presl var. plantaginea (Roxb.) Solms-Laub.; assay: Test 2 paddy pot herbicidal effect with water drainage and feeding; format: in vivo; conditions: water drainage and feeding 2 cm per day for two days, 28th day
Protocol: (§2) Further, a tuber of Sagittaria pygmaea Miq. was buried. […] For two days starting from the next day, water drainage and feeding each of 2 cm in depth per day were conducted.

Sagittaria pygmaea Miq. [4] = assay: as above; format: in vivo; conditions: water drainage and feeding 2 cm per day for two days, 28th day
Protocol: as §2

[5] = test system: Oryza sativa L. (paddy rice); assay: Test 4 injury to paddy rice; conditions: two-leaf stage seedlings, 28th day from application
[6] = test system: Echinochloa oryzicola vasing.; assay: Test 4 paddy pot herbicidal effect; conditions: applied next day, 28th day from application
Sagittaria pygmaea Miq. [7] = assay: Test 4 paddy pot herbicidal effect; conditions: applied next day, 28th day from application
Cyperus serotinus Rottb. = assay: Test 4 paddy pot herbicidal effect; conditions: applied next day, 28th day from application
[8] = test system: Echindchloa oryzicola Vasing. (Ec); assay: Test 5 herbicidal effect by application stage; conditions: 28th day from application
[9] = test system: Echinochloa oryzicola vasing.; assay: Test 3 herbicidal effect, application before germination or at 3-leaf stage; conditions: 28th day from application

COc1cc(OC)nc(C(O)c2ccccc2NS(=O)(=O)C(F)(F)F)n1 (stereo not drawn) [Comparative Compound, 2-[(4,6-dimethoxypyrimidine-2-yl)hydroxymethyl]-N-trifluoromethanes ulfonyl anilide, reference compound]
Herbicidal effect Ec ([1]; 0.4 g/10 ares): 0 (Herbicidal effect of less than 10%, injury to paddy rice)
Herbicidal effect Ec ([1]; 1.6 g/10 ares): 1 (Herbicidal effect of 10% or more to less than 30%, injury to paddy rice)
Herbicidal effect Ec ([1]; 6.3 g/10 ares): 3 (Herbicidal effect of 50% or more to less than 70%, injury to paddy rice)
Herbicidal effect Ec ([1]; 25.0 g/10 ares): 4 (Herbicidal effect of 70% or more to less than 90%, injury to paddy rice)
Herbicidal effect Mo ([2]; 0.4 g/10 ares): 4 (Herbicidal effect of 70% or more to less than 90%, injury to paddy rice)
Herbicidal effect Mo ([2]; 1.6 g/10 ares): 5 (Herbicidal effect of 90% or more, injury to paddy rice)
Herbicidal effect Mo ([2]; 6.3 g/10 ares): 5 (Herbicidal effect of 90% or more, injury to paddy rice)
Herbicidal effect Mo ([2]; 25.0 g/10 ares): 5 (Herbicidal effect of 90% or more, injury to paddy rice)
Herbicidal effect Ec ([3]; 0.6 g/10 ares): 0 (Herbicidal effect of less than 10%, injury to paddy rice)
Herbicidal effect Ec ([3]; 1.3 g/10 ares): 1 (Herbicidal effect of 10% or more to less than 30%, injury to paddy rice)
Herbicidal effect Ec ([3]; 2.5 g/10 ares): 3 (Herbicidal effect of 50% or more to less than 70%, injury to paddy rice)
Herbicidal effect Ec ([3]; 5.0 g/10 ares): 5 (Herbicidal effect of 90% or more, injury to paddy rice)
Herbicidal effect Sc (Sagittaria pygmaea Miq. [4]; 0.6 g/10 ares): 0 (Herbicidal effect of less than 10%, injury to paddy rice)
Herbicidal effect Sc (Sagittaria pygmaea Miq. [4]; 1.3 g/10 ares): 2 (Herbicidal effect of 30% or more to less than 50%, injury to paddy rice)
Herbicidal effect Sc (Sagittaria pygmaea Miq. [4]; 2.5 g/10 ares): 4 (Herbicidal effect of 70% or more to less than 90%, injury to paddy rice)
Herbicidal effect Sc (Sagittaria pygmaea Miq. [4]; 5.0 g/10 ares): 5 (Herbicidal effect of 90% or more, injury to paddy rice)
Injury to rice Or ([5]; 0.6 g/10 ares): 0 (Herbicidal effect of less than 10%, injury to paddy rice)
Injury to rice Or ([5]; 1.3 g/10 ares): 0 (Herbicidal effect of less than 10%, injury to paddy rice)
Injury to rice Or ([5]; 2.5 g/10 ares): 0 (Herbicidal effect of less than 10%, injury to paddy rice)
Injury to rice Or ([5]; 5.0 g/10 ares): 1 (Herbicidal effect of 10% or more to less than 30%, injury to paddy rice)
Herbicidal effect Ec ([6]; 0.6 g/10 ares): 0 (Herbicidal effect of less than 10%, injury to paddy rice)
Herbicidal effect Ec ([6]; 1.3 g/10 ares): 1 (Herbicidal effect of 10% or more to less than 30%, injury to paddy rice)
Herbicidal effect Ec ([6]; 2.5 g/10 ares): 2 (Herbicidal effect of 30% or more to less than 50%, injury to paddy rice)
Herbicidal effect Ec ([6]; 5.0 g/10 ares): 4 (Herbicidal effect of 70% or more to less than 90%, injury to paddy rice)
Herbicidal effect Sa (Sagittaria pygmaea Miq. [7]; 0.6 g/10 ares): 5 (Herbicidal effect of 90% or more, injury to paddy rice)
Herbicidal effect Sa (Sagittaria pygmaea Miq. [7]; 1.3 g/10 ares): 5 (Herbicidal effect of 90% or more, injury to paddy rice)
Herbicidal effect Sa (Sagittaria pygmaea Miq. [7]; 2.5 g/10 ares): 5 (Herbicidal effect of 90% or more, injury to paddy rice)
Herbicidal effect Sa (Sagittaria pygmaea Miq. [7]; 5.0 g/10 ares): 5 (Herbicidal effect of 90% or more, injury to paddy rice)
Herbicidal effect Cy (Cyperus serotinus Rottb.; 0.6 g/10 ares): 5 (Herbicidal effect of 90% or more, injury to paddy rice)
Herbicidal effect Cy (Cyperus serotinus Rottb.; 1.3 g/10 ares): 5 (Herbicidal effect of 90% or more, injury to paddy rice)
Herbicidal effect Cy (Cyperus serotinus Rottb.; 2.5 g/10 ares): 5 (Herbicidal effect of 90% or more, injury to paddy rice)
Herbicidal effect Cy (Cyperus serotinus Rottb.; 5.0 g/10 ares): 5 (Herbicidal effect of 90% or more, injury to paddy rice)
Herbicidal effect (Ec) Application stage 1-leaf ([8]; 1.3 g/10 ares): 0 (Herbicidal effect of less than 10%, injury to paddy rice)
Herbicidal effect (Ec) Application stage 2-leaf ([8]; 1.3 g/10 ares): 0 (Herbicidal effect of less than 10%, injury to paddy rice)
Herbicidal effect (Ec) Application stage 3-leaf ([8]; 1.3 g/10 ares): 0 (Herbicidal effect of less than 10%, injury to paddy rice)
Herbicidal effect (Ec) Application stage 1-leaf ([8]; 2.5 g/10 ares): 1 (Herbicidal effect of 10% or more to less than 30%, injury to paddy rice)
Herbicidal effect (Ec) Application stage 2-leaf ([8]; 2.5 g/10 ares): 0 (Herbicidal effect of less than 10%, injury to paddy rice)
Herbicidal effect (Ec) Application stage 3-leaf ([8]; 2.5 g/10 ares): 0 (Herbicidal effect of less than 10%, injury to paddy rice)
Herbicidal effect (Ec) Application stage 1-leaf ([8]; 5.0 g/10 ares): 3 (Herbicidal effect of 50% or more to less than 70%, injury to paddy rice)
Herbicidal effect (Ec) Application stage 2-leaf ([8]; 5.0 g/10 ares): 2 (Herbicidal effect of 30% or more to less than 50%, injury to paddy rice)
Herbicidal effect (Ec) Application stage 3-leaf ([8]; 5.0 g/10 ares): 2 (Herbicidal effect of 30% or more to less than 50%, injury to paddy rice)
Herbicidal effect (Ec) Application at 3-leaf stage ([9]; 0.3 g/10 ares): 0 (Herbicidal effect of less than 10%, injury to paddy rice)
Herbicidal effect (Ec) Application before germination ([9]; 0.3 g/10 ares): 0 (Herbicidal effect of less than 10%, injury to paddy rice)
Herbicidal effect (Ec) Application at 3-leaf stage ([9]; 0.6 g/10 ares): 0 (Herbicidal effect of less than 10%, injury to paddy rice)
Herbicidal effect (Ec) Application before germination ([9]; 0.6 g/10 ares): 0 (Herbicidal effect of less than 10%, injury to paddy rice)
Herbicidal effect (Ec) Application at 3-leaf stage ([9]; 1.3 g/10 ares): 0 (Herbicidal effect of less than 10%, injury to paddy rice)
Herbicidal effect (Ec) Application before germination ([9]; 1.3 g/10 ares): 1 (Herbicidal effect of 10% or more to less than 30%, injury to paddy rice)
Herbicidal effect (Ec) Application at 3-leaf stage ([9]; 2.5 g/10 ares): 0 (Herbicidal effect of less than 10%, injury to paddy rice)
Herbicidal effect (Ec) Application before germination ([9]; 2.5 g/10 ares): 2 (Herbicidal effect of 30% or more to less than 50%, injury to paddy rice)
Herbicidal effect (Ec) Application at 3-leaf stage ([9]; 5.0 g/10 ares): 1 (Herbicidal effect of 10% or more to less than 30%, injury to paddy rice)
Herbicidal effect (Ec) Application before germination ([9]; 5.0 g/10 ares): 3 (Herbicidal effect of 50% or more to less than 70%, injury to paddy rice)
